Measured values published in patent publication US5488060A, “Substituted thiadiazoles, compositions containing them and their use as antimicrobial and marine antifouling agents” (The Dow Chemical Company, priority 1994, dated 1996).
In brackets after ≈: the same amount, converted by molar mass. Where two headings read alike, the source gives them in different places.

Assays:
Format in all cases: cell-based
[1] = system: Pseudomonas aeruginosa (PRD-10); assay: Minimum inhibitory concentration (MIC) in nutrient agar, Pseudomonas aeruginosa PRD-10; conditions: 48 h
Procedure: (§1) The antimicrobial activity of the compounds of the present invention is set forth as the minimum inhibitory concentration (MIC) for the active compounds and is determined for nine (9) bacteria, using nutrient agar, and seven (7) yeast and fungi, using malt yeast agar. This determination is conducted using a one percent solution of the test compound prepared in a mixture of acetone and water.
(§2) Nutrient agar is prepared at pH 6.8, representing a neutral medium, and at pH 8.2, representing an alkaline medium. The nutrient agars are prepared by adding 23 g of nutrient agar to one-liter of deionized water. In addition, the alkaline medium is prepared by adjusting a 0.04M solution of N-[tris-(hydroxymethyl)methyl]glycine buffered deionized water with concentrated sodium hydroxide to a pH of 8.5.
(§3) The test tubes containing the agar are cooled in a water bath until the temperature of the agar is 48° C. Then, an appropriate amount of the one percent solution of the test compound is added (except in the controls where no compound is added) to the respective test tubes so that the final concentrations are 500, […], 100, 50, 25, 10, 5, 2.5, 1.0 and zero parts per million of the test compound in the agar, thus having a known concentration of test compound dispersed therein. The contents of the test tubes are then transferred to respective petri plates. After drying for 24 hours, the petri plates containing nutrient agar are inoculated with bacteria and those containing malt yeast agar are inoculated with yeast and fungi.
(§4) The inoculation with bacteria is accomplished by using the following procedure. Twenty-four hour-cultures of each of the bacteria are prepared by incubating the respective bacteria in tubes containing nutrient broth for 24 hours at 30° C. in a shaker. Dilutions of each of the 24 hour-cultures are made so that nine separate suspensions (one for each of the nine test bacteria) are made, each containing 10^8 colony forming units (CFU) per mL of suspension of a particular bacteria. Aliquots of 0.3 mL of each of the bacterial suspensions are used to fill the individual wells of Steer's Replicator. For each microbial suspension, 0.3 mL was used to fill three wells (i.e., three wells of 0.3 mL each) so that for the nine different bacteria, 27 wells are filled. The Steer's Replicator is then used to inoculate both the neutral and alkaline pH nutrient agar petri plates.
(§5) The inoculated petri plates are incubated at 30° C. for 48 hours and then read to determine if the test compound which is incorporated into the agar prevented growth of the respective bacteria.

[2] = system: Enterobacter aerogenes (Ea); assay: Minimum inhibitory concentration (MIC) in nutrient agar, Enterobacter aerogenes; conditions: Klebsiella aerogenes, 48 h
Procedure: as §1, §2, §3, §4, §5

Trichoderma viride (Tv) = assay: Minimum inhibitory concentration (MIC) in malt yeast agar, Trichoderma viride
Procedure: as §1
(§6) Malt yeast agar is prepared at pH 5.5 by adding 3 g yeast extract and 45 g malt agar per liter of deionized water. The specific agar is dispensed in 30 mL aliquots into 25×200 mm test tubes, capped and autoclaved for 15 minutes at 115° C.
as §3
(§7) The inoculation with the yeast and fungi is accomplished as follows. Cultures of yeast and fungi are incubated for seven days on malt yeast agar at 30° C. These cultures are used to prepare suspensions by the following procedure. A suspension of each organism is prepared by adding 10 mL of sterile saline and 10 microliters of octylphenoxy polyethoxy ethanol to the agar slant of yeast or fungi. The sterile saline/octylphenoxy potyethoxy ethanol solution is then agitated with a sterile swab to suspend the microorganism grown on the slant. Each resulting suspension is diluted into sterile saline (1 part suspension: 9 parts sterile saline). Aliquots of these dilutions are placed in individual wells of Steer's Replicator and petri plates inoculated as previously described. The petri plates are incubated at 30° C. and read after 48 hours for yeast and 72 hours for fungi.

[3] = system: Penicillium chrysogenum (Pc); assay: Minimum inhibitory concentration (MIC) in malt yeast agar, Penicillium chrysogenum
Procedure: as §1, §6, §3, §7

Proteus vulgaris (Pv) = assay: Minimum inhibitory concentration (MIC) in nutrient agar, Proteus vulgaris; conditions: 48 h
Procedure: as §1, §2, §3, §4, §5

[4] = system: Aureobasidium pullulan (Ap); assay: Minimum inhibitory concentration (MIC) in malt yeast agar, Aureobasidium pullulan; conditions: pH 5.5; malt yeast agar, 30° C.; read-out: Minimum Inhibitory Concentration, Ap
Procedure: as §1, §6, §3, §7

Bacillus subtilis (Bs) = assay: Minimum inhibitory concentration (MIC) in nutrient agar, Bacillus subtilis; conditions: 48 h
Procedure: as §1, §2, §3, §4, §5

[5] = system: Staphylococcus aureus (Sa); assay: Minimum inhibitory concentration (MIC) in nutrient agar, Staphylococcus aureus
Procedure: as §1, §2, §3, §4, §5

[6] = system: Salmonella choleraesuis (Se); assay: Minimum inhibitory concentration (MIC) in nutrient agar, Salmonella choleraesuis; conditions: Salmonella enterica, 48 h
Procedure: as §1, §2, §3, §4, §5

Aspergillus niger (An) = assay: Minimum inhibitory concentration (MIC) in malt yeast agar, Aspergillus niger
Procedure: as §1, §6, §3, §7

[7] = system: Saccharomyces cerevisiae (Sc); assay: Minimum inhibitory concentration (MIC) in malt yeast agar, Saccharomyces cerevisiae; conditions: pH 5.5, malt yeast agar, 30° C., 48 hours for yeast, read-out: Minimum Inhibitory Concentration, SC
Procedure: as §1, §6, §3, §7

[8] = system: Klebsiella pneumoniae (Kp); assay: Minimum inhibitory concentration (MIC) in nutrient agar, Klebsiella pneumoniae
Procedure: as §1, §2, §3, §4, §5

Candida albicans (Ca) = assay: Minimum inhibitory concentration (MIC) in malt yeast agar, Candida albicans
Procedure: as §1, §6, §3, §7

Fusarium oxysporum (Fo) = assay: Minimum inhibitory concentration (MIC) in malt yeast agar, Fusarium oxysporum
Procedure: as §1, §6, §3, §7

[9] = system: Pseudomonas aeruginosa (Pa); assay: Minimum inhibitory concentration (MIC) in nutrient agar, Pseudomonas aeruginosa; conditions: 30° C., 48 hours, read-out: Minimum Inhibitory Concentration, Pa
Procedure: as §1, §2, §3, §4, §5

Escherichia coli (Ec) = assay: Minimum inhibitory concentration (MIC) in nutrient agar, Escherichia coli
Procedure: as §1, §2, §3, §4, §5

[10] = pH 6.8, read-out: Minimum Inhibitory Concentration, PRD
[11] = pH 8.2, read-out: Minimum Inhibitory Concentration, PRD
[12] = pH 6.8, read-out: Minimum Inhibitory Concentration, Ea
[13] = pH 8.2, read-out: Minimum Inhibitory Concentration, Ea
[14] = pH 6.8, read-out: Minimum Inhibitory Concentration, Pv
[15] = pH 8.2, read-out: Minimum Inhibitory Concentration, Pv
[16] = pH 6.8, read-out: Minimum Inhibitory Concentration, Bs
[17] = pH 8.2, read-out: Minimum Inhibitory Concentration, Bs
[18] = 48 h, pH 8.2, read-out: Minimum Inhibitory Concentration, Sa
[19] = pH 6.8, nutrient agar, 30° C., 48 hours, read-out: Minimum Inhibitory Concentration, Sa
[20] = pH 6.8, read-out: Minimum Inhibitory Concentration, SC
[21] = pH 8.2, read-out: Minimum Inhibitory Concentration, SC
[22] = 48 h, pH 8.2, read-out: Minimum Inhibitory Concentration, Kp
[23] = pH 6.8, nutrient agar, 30° C., 48 hours, read-out: Minimum Inhibitory Concentration, Kp
[24] = 48 h, pH 6.8, read-out: Minimum Inhibitory Concentration, Ec

Row | SMILES | MIC [1, 10] | MIC [1, 11] | MIC [2, 12] | MIC [2, 13] | MIC (Proteus vulgaris (Pv); [14]) | MIC (Proteus vulgaris (Pv); [15]) | MIC [4] | MIC (Bacillus subtilis (Bs); [16]) | MIC (Bacillus subtilis (Bs); [17]) | MIC [5, 18] | MIC [5, 19] | MIC [6, 20] | MIC [6, 21] | MIC [7] | MIC [8, 22] | MIC [8, 23] | MIC ([9]; pH 6.8, nutrient agar) | MIC ([9]; pH 8.2, nutrient agar) | MIC (Escherichia coli (Ec); [24]) | other results
1 | CSc1ccc(-c2nsnc2SCSC#N)cc1 [Example XXIV, 4-(4-Methylthiophenyl)-3-thiocyanatomethylthio-1,2,5-thiadiazole] | 500 µg/mL (≈ 1610 µM) | > 500 µg/mL | 500 µg/mL (≈ 1610 µM) | > 500 µg/mL | 500 µg/mL (≈ 1610 µM) | > 500 µg/mL | 500 µg/mL (≈ 1610 µM) | 500 µg/mL (≈ 1610 µM) | 500 µg/mL (≈ 1610 µM) | > 500 µg/mL | 500 µg/mL (≈ 1610 µM) | 500 µg/mL (≈ 1610 µM) | > 500 µg/mL | 500 µg/mL (≈ 1610 µM) | > 500 µg/mL | 500 µg/mL (≈ 1610 µM) | 500 µg/mL (≈ 1610 µM) | > 500 µg/mL | 500 µg/mL (≈ 1610 µM) | MIC (Trichoderma viride (Tv); pH 5.5, malt yeast agar, 30° C., 72 hours for fungi, read-out: Minimum Inhibitory Concentration, Tv): 500 µg/mL (≈ 1610 µM); MIC ([3]; pH 5.5, malt yeast agar, 30° C., 72 hours for fungi, read-out: Minimum Inhibitory Concentration, PC): 500 µg/mL (≈ 1610 µM); MIC (Aspergillus niger (An); pH 5.5, malt yeast agar, 30° C., 72 hours for fungi, read-out: Minimum Inhibitory Concentration, An): 500 µg/mL (≈ 1610 µM); MIC (Candida albicans (Ca); pH 5.5, malt yeast agar, 30° C., 48 hours for yeast, read-out: Minimum Inhibitory Concentration, Ca): 500 µg/mL (≈ 1610 µM); MIC (Fusarium oxysporum (Fo); pH 5.5, malt yeast agar, 30° C., 72 hours for fungi, read-out: Minimum Inhibitory Concentration, Fo): 500 µg/mL (≈ 1610 µM); MIC (Escherichia coli (Ec); pH 8.2, nutrient agar, 30° C., 48 hours, read-out: Minimum Inhibitory Concentration, Ec): 250 µg/mL (≈ 803 µM)
2 | COc1ccc(-c2nsnc2SCSC#N)cc1 [Example XXIII, 4-(4-Methoxyphenyl)-3-thiocyanatomethylthio-1,2,5-thiadiazole] | > 500 µg/mL | > 500 µg/mL | > 500 µg/mL | 500 µg/mL (≈ 1690 µM) | > 500 µg/mL | > 500 µg/mL | 9 µg/mL (≈ 30.5 µM) | 500 µg/mL (≈ 1690 µM) | 250 µg/mL (≈ 846 µM) | > 500 µg/mL | > 500 µg/mL | > 500 µg/mL | > 500 µg/mL | 9 µg/mL (≈ 30.5 µM) | > 500 µg/mL | > 500 µg/mL | > 500 µg/mL | > 500 µg/mL | > 500 µg/mL | MIC (Trichoderma viride (Tv); 72 h, pH 5.5, read-out: Minimum Inhibitory Concentration, Tv): 250 µg/mL (≈ 846 µM); MIC ([3]; 72 h, pH 5.5, read-out: Minimum Inhibitory Concentration, PC): 50 µg/mL (≈ 169 µM); MIC (Aspergillus niger (An); 72 h, pH 5.5, read-out: Minimum Inhibitory Concentration, An): 25 µg/mL (≈ 84.6 µM); MIC (Candida albicans (Ca); 48 h, pH 5.5, read-out: Minimum Inhibitory Concentration, Ca): 250 µg/mL (≈ 846 µM); MIC (Fusarium oxysporum (Fo); 72 h, pH 5.5, read-out: Minimum Inhibitory Concentration, Fo): 100 µg/mL (≈ 339 µM); MIC (Escherichia coli (Ec); 48 h, pH 8.2, read-out: Minimum Inhibitory Concentration, Ec): > 500 µg/mL
